{
  "source": "patent US7192931B2",
  "about": "“Treatment of demyelinating diseases” (Neuren Pharmaceuticals Ltd., priority 2000, dated 2007)",
  "format_in_all_cases": "in vivo, mouse",
  "key": {"[1]": {"test_system": "C57Bl/6 mice with MOG35-55 peptide-induced EAE", "test": "Clinical scoring of MOG35-55-induced EAE", "description": "(§1) C57Bl/6 mice (8–10 week old) were injected subcutaneously in one flank with 300 μg of MOG35-55 peptide ([…]: SEQ ID NO:1) synthesized by Mimotapes Pty Ltd, Clayton, Australia and emulsified in CFA containing 500 μg of Mycobacterium tuberculosis H37Ra (DIFCO Laboratories, Detrit, USA). They also received 500 ng of pertussis toxin (List Biological Laboratories, CA, USA) in 200 μl PBS intravenously via the tail vein, followed 48 hours later by a second dose. A second injection of MOG peptide was given in the absence of pertussis toxin one week later in the opposite flank, as described previously (Kanwar et al., 2000b).\n(§2) Two treatment protocols were employed, involving the treatment of early disease, versus advanced disease. For early disease, reagents were administered at day 35 (following MOG injection). Antibody was administered thrice on alternate days, whereas neuroprotectors were given daily for 6 days, where 50% of reagent was given ip and 50% iv. In the treatment of advanced disease, therapy as above was initiated at day 60, with either three or eight anti-MAdCAM-1 mAb injections, and neuroprotectors given daily for either 7 or 18 days.\n(§3) The mice were monitored daily and scored according to the following scale: 0, no clinical signs of EAE; 1, limp tail; 2, partial hind limb paralysis; 3, complete hind limb paralysis; 4, complete hind limb and partial fore limb paralysis; 5, paralysis extending to diaphragm; 6, hind and fore limb paralysis; 7, death due to EAE. Paralysis extending to the diaphragm was denoted as difficulty in remaining upright. […] The daily mean clinical score for each group is the mean disease score of at least five mice. The body weight of animals was measured regularly throughout the experiments. The expanded disability status scale for EAE treated mice was scored using an earlier published scoring system (Villoslada et al. 2000).\nThe rat hybridoma MECA-367 (rat IgG2a),5 which secretes a mAb against mouse MAdCAM-1 was either provided by Dr Eugene Butcher, Stanford University, Stanford, Calif. (FIGS. 1A and B), or obtained directly from the American Type Culture Collection, Rockville, Md. (FIG. 1C, and remainder of studies). Rat IgG obtained from Sigma Co., USA, served as a control. Antibodies were administered into the tail vein (70% of mAb) and intraperitoneally (30% of mAb) at 10 mg/Kg separately or in combination on alternate days at the time points indicated (FIGS. 1–4). The rat IgG control antibody was also administered at 10 mg/Kg. Backbones from sacrificed mice were frozen in isopentane at −70° C. Transverse 10 μm sections made through the spinal cord of control and diseased mice, in each case made at the same levels of the cord, were mounted on poly L-lysine-coated slides, and stained with haematoxylin and eosin."}, "[2]": {"test_system": "C57Bl/6 mice with MOG35-55 peptide-induced EAE", "test": "Expanded disability status scale for EAE treated mice", "conditions": "for Maximal disability score: Alertness / Maximal disability score: Bladder function / Maximal disability score: Eye movements / Maximal disability score: Motor (grip)* / Maximal disability score: Other signs (shine hairs and loose skin) / Maximal disability score: Sensory* Light touch / Maximal disability score: Sensory* Pain / Maximal disability score: Spontaneous mobility / Maximal disability score: Tone* / Maximal disability score: Tremor / Maximal disability score: Vision (including pupillary reflex) / Total expanded disability scale: mean values", "description": "as §1, §2, §3"}, "GluR2": {"test_system": "GluR2", "test": "GluR2 subunit expression in spinal cord", "conditions": "spinal cord of EAE mice, immunohistochemistry and Western blot", "quoted_text": "Frozen sections from lumbar spinal cord (10 μm) were acetone-fixed and immunostained for oligodendrocyte content with an antibody against CNPase (Sigma; diluted 1:100); for axonal damage with an antibody against non-phosphorylated neurofilament-H (SM 1-32; Stemberger Monoclonals Incorporated, Lutherville, Md., USA; diluted 1:1000), and for GluR2 and NR1 content using mouse mAbs obtained from Zymed Laboratories Inc., Carlton, San Francisco, Calif. Antibody staining was visualized with an avidin:biotinylated enzyme complex (Vector Laboratories, Burlingame, Calif., USA). Sections were viewed under a light microscope, and cells stained with the anti-CNPase and SM 1-32 antibodies were counted.\nPBS-perfused spinal cords were homogenized in lysis buffer (50 mM Tris pH 7.4, 100 μM EDTA, 0.25 M sucrose, 1% sodium dodecyl sulfate [SDS], 1% Nonidet P-40 [NP40], 1 μg/mL leupeptin, 1 μg/mL pepstatin A, and 100 μM phenylmethylsulfonylfluoride) at 4° C. using a motor-driven homogenizer (Virtus, Gardiner, N.Y.). […] The membranes were washed thrice with TBS-T and incubated with horseradish peroxidase-conjugated anti-mouse IgG (Sigma) diluted 1:5000 in TBS-T. Immunoreactivity was detected by Enhanced Chemiluminescence (Amersham International plc. England) and autoradiography."}},
  "data": [
    {"substance": "Gly-Pro-Glu [GPE]", "values": [
      {"measurement": "effectiveness of prolonged treatment on disease severity", "setting": "[1]; advanced disease, prolonged treatment from day 60 (FIG. 1C)", "result": "NBQX+GPE+anti-MAdCAM-1>NBQX+GPE>NBQX>GPE"},
      {"measurement": "effect on advanced EAE (clinical symptoms)", "setting": "[1]; advanced disease, mAb three injections from day 51, neuroprotectors 7 days from day 60 (FIG. 1B)", "result": "only caused temporary remission"},
      {"measurement": "effect on development of EAE (clinical symptoms)", "setting": "[1]; early disease, treatment from day 35 (FIG. 1A)", "result": "suppressed EAE, up to 27 days after suspension of treatment"},
      {"measurement": "total scores (disability scale)", "setting": "[2]; at day 70 as printed, 35 for rat IgG treated control mice", "result": 10},
      {"measurement": "Maximal disability score: Alertness", "setting": "[2]; day 55 after immunization", "result": 2},
      {"measurement": "Maximal disability score: Bladder function", "setting": "[2]; day 55 after immunization", "result": 0},
      {"measurement": "Maximal disability score: Eye movements", "setting": "[2]; day 55 after immunization", "result": 1},
      {"measurement": "Maximal disability score: Motor (grip)*", "setting": "[2]; day 55 after immunization", "result": 12},
      {"measurement": "Maximal disability score: Other signs (shine hairs and loose skin)", "setting": "[2]; day 55 after immunization", "result": 3},
      {"measurement": "Maximal disability score: Sensory* Light touch", "setting": "[2]; day 55 after immunization", "result": 8},
      {"measurement": "Maximal disability score: Sensory* Pain", "setting": "[2]; day 55 after immunization", "result": 8},
      {"measurement": "Maximal disability score: Spontaneous mobility", "setting": "[2]; day 55 after immunization", "result": 3},
      {"measurement": "Maximal disability score: Tone*", "setting": "[2]; day 55 after immunization", "result": 12},
      {"measurement": "Maximal disability score: Tremor", "setting": "[2]; day 55 after immunization", "result": 2},
      {"measurement": "Maximal disability score: Vision (including pupillary reflex)", "setting": "[2]; day 55 after immunization", "result": 1},
      {"measurement": "Total expanded disability scale", "setting": "[2]; day 55 after immunization", "result": 52},
      {"measurement": "Maximal disability score: Alertness", "setting": "[2]; day 60 after immunization", "result": 2},
      {"measurement": "Maximal disability score: Bladder function", "setting": "[2]; day 60 after immunization", "result": 1},
      {"measurement": "Maximal disability score: Eye movements", "setting": "[2]; day 60 after immunization", "result": 1},
      {"measurement": "Maximal disability score: Motor (grip)*", "setting": "[2]; day 60 after immunization", "result": 12},
      {"measurement": "Maximal disability score: Other signs (shine hairs and loose skin)", "setting": "[2]; day 60 after immunization", "result": 2},
      {"measurement": "Maximal disability score: Sensory* Light touch", "setting": "[2]; day 60 after immunization", "result": 8},
      {"measurement": "Maximal disability score: Sensory* Pain", "setting": "[2]; day 60 after immunization", "result": 8},
      {"measurement": "Maximal disability score: Spontaneous mobility", "setting": "[2]; day 60 after immunization", "result": 3},
      {"measurement": "Maximal disability score: Tone*", "setting": "[2]; day 60 after immunization", "result": 12},
      {"measurement": "Maximal disability score: Tremor", "setting": "[2]; day 60 after immunization", "result": 2},
      {"measurement": "Maximal disability score: Vision (including pupillary reflex)", "setting": "[2]; day 60 after immunization", "result": 1},
      {"measurement": "Total expanded disability scale", "setting": "[2]; day 60 after immunization", "result": 52},
      {"measurement": "Maximal disability score: Alertness", "setting": "[2]; day 65 after immunization", "result": 1},
      {"measurement": "Maximal disability score: Bladder function", "setting": "[2]; day 65 after immunization", "result": 0},
      {"measurement": "Maximal disability score: Eye movements", "setting": "[2]; day 65 after immunization", "result": 0},
      {"measurement": "Maximal disability score: Motor (grip)*", "setting": "[2]; day 65 after immunization", "result": 4},
      {"measurement": "Maximal disability score: Other signs (shine hairs and loose skin)", "setting": "[2]; day 65 after immunization", "result": 0},
      {"measurement": "Maximal disability score: Sensory* Light touch", "setting": "[2]; day 65 after immunization", "result": 0},
      {"measurement": "Maximal disability score: Sensory* Pain", "setting": "[2]; day 65 after immunization", "result": 0},
      {"measurement": "Maximal disability score: Spontaneous mobility", "setting": "[2]; day 65 after immunization", "result": 2},
      {"measurement": "Maximal disability score: Tone*", "setting": "[2]; day 65 after immunization", "result": 8},
      {"measurement": "Maximal disability score: Tremor", "setting": "[2]; day 65 after immunization", "result": 0},
      {"measurement": "Maximal disability score: Vision (including pupillary reflex)", "setting": "[2]; day 65 after immunization", "result": 0},
      {"measurement": "Total expanded disability scale", "setting": "[2]; day 65 after immunization", "result": 15},
      {"measurement": "Maximal disability score: Alertness", "setting": "[2]; day 70 after immunization", "result": 1},
      {"measurement": "Maximal disability score: Bladder function", "setting": "[2]; day 70 after immunization", "result": 0},
      {"measurement": "Maximal disability score: Eye movements", "setting": "[2]; day 70 after immunization", "result": 1},
      {"measurement": "Maximal disability score: Motor (grip)*", "setting": "[2]; day 70 after immunization", "result": 4},
      {"measurement": "Maximal disability score: Other signs (shine hairs and loose skin)", "setting": "[2]; day 70 after immunization", "result": 0},
      {"measurement": "Maximal disability score: Sensory* Light touch", "setting": "[2]; day 70 after immunization", "result": 0},
      {"measurement": "Maximal disability score: Sensory* Pain", "setting": "[2]; day 70 after immunization", "result": 0},
      {"measurement": "Maximal disability score: Spontaneous mobility", "setting": "[2]; day 70 after immunization", "result": 3},
      {"measurement": "Maximal disability score: Tone*", "setting": "[2]; day 70 after immunization", "result": 4},
      {"measurement": "Maximal disability score: Tremor", "setting": "[2]; day 70 after immunization", "result": 0},
      {"measurement": "Maximal disability score: Vision (including pupillary reflex)", "setting": "[2]; day 70 after immunization", "result": 0},
      {"measurement": "Total expanded disability scale", "setting": "[2]; day 70 after immunization", "result": 13},
      {"measurement": "Maximal disability score: Alertness", "setting": "[2]; day 75 after immunization", "result": 1},
      {"measurement": "Maximal disability score: Bladder function", "setting": "[2]; day 75 after immunization", "result": 1},
      {"measurement": "Maximal disability score: Eye movements", "setting": "[2]; day 75 after immunization", "result": 0},
      {"measurement": "Maximal disability score: Motor (grip)*", "setting": "[2]; day 75 after immunization", "result": 0},
      {"measurement": "Maximal disability score: Other signs (shine hairs and loose skin)", "setting": "[2]; day 75 after immunization", "result": 0},
      {"measurement": "Maximal disability score: Sensory* Light touch", "setting": "[2]; day 75 after immunization", "result": 0},
      {"measurement": "Maximal disability score: Sensory* Pain", "setting": "[2]; day 75 after immunization", "result": 0},
      {"measurement": "Maximal disability score: Spontaneous mobility", "setting": "[2]; day 75 after immunization", "result": 3},
      {"measurement": "Maximal disability score: Tone*", "setting": "[2]; day 75 after immunization", "result": 4},
      {"measurement": "Maximal disability score: Tremor", "setting": "[2]; day 75 after immunization", "result": 0},
      {"measurement": "Maximal disability score: Vision (including pupillary reflex)", "setting": "[2]; day 75 after immunization", "result": 1},
      {"measurement": "Total expanded disability scale", "setting": "[2]; day 75 after immunization", "result": 10},
      {"measurement": "Maximal disability score: Alertness", "setting": "[2]; day 119 after immunization", "result": 1},
      {"measurement": "Maximal disability score: Bladder function", "setting": "[2]; day 119 after immunization", "result": 0},
      {"measurement": "Maximal disability score: Eye movements", "setting": "[2]; day 119 after immunization", "result": 1},
      {"measurement": "Maximal disability score: Motor (grip)*", "setting": "[2]; day 119 after immunization", "result": 0},
      {"measurement": "Maximal disability score: Other signs (shine hairs and loose skin)", "setting": "[2]; day 119 after immunization", "result": 0},
      {"measurement": "Maximal disability score: Sensory* Light touch", "setting": "[2]; day 119 after immunization", "result": 4},
      {"measurement": "Maximal disability score: Sensory* Pain", "setting": "[2]; day 119 after immunization", "result": 4},
      {"measurement": "Maximal disability score: Spontaneous mobility", "setting": "[2]; day 119 after immunization", "result": 2},
      {"measurement": "Maximal disability score: Tone*", "setting": "[2]; day 119 after immunization", "result": 4},
      {"measurement": "Maximal disability score: Tremor", "setting": "[2]; day 119 after immunization", "result": 1},
      {"measurement": "Maximal disability score: Vision (including pupillary reflex)", "setting": "[2]; day 119 after immunization", "result": 0},
      {"measurement": "Total expanded disability scale", "setting": "[2]; day 119 after immunization", "result": 17},
      {"measurement": "GluR2 expression", "setting": "GluR2", "result": "negligible effect"}
    ]}
  ]
}
